Earlier results in patent US20110086102A1, “DELAYED RELEASE COMPOSITIONS” (Teva Pharmaceutical Industries Ltd., priority 2009, published 2011).
Where two headings read alike, the source gives them in different places.

For `COc1c(C)c2c(c(O)c1C/C=C(\C)CCC(=O)[O-])C(=O)OC2.[Na+]` [Mycophenolate sodium, (E)-6-(4-hydroxy-6-methoxy-7-methyl-3-oxo-1,3-dihydro-isobenzofuran-5-yl)-4-methylhex-4-enoic acid sodium salt], the Solubility (0.1N hydrochloric acid) is listed as “practically insoluble” and the Solubility (aqueous media at physiological pH) is listed as “highly soluble”.
